Key:
[1] = Stability of 4-hydroxybenzyl isothiocyanate in buffered aqueous solutions (citrate buffers); type: physicochemical; conditions: citrate buffer
Experimental: Stability of 4-Hydroxybenzyl Isothiocyanate in Buffered Media. Partially purified 4-hydroxybenzyl isothiocyanate was prepared by suspending 500 grams of S. alba seed meal in 2 liters of deionized water and extracting the mixture with 500 milliliters of ethyl acetate for 24 hours. The ethyl acetate extract was separated by decanting the top organic layer after centrifugation, dried with 100 g of anhydrous sodium sulfate over night, and concentrated under vacuum at laboratory temperature. The crude 4-hydroxybenzyl isothiocyanate extract was further purified by preparative column chromatography on silica gel (500 grams). […] Content of 4-hydroxybenzyl isothiocyanate within the fractions was verified by GC-MS using instrumentation and conditions as described previously. Fractions containing 4-hydroxybenzyl isothiocyanate were combined and concentrated under vacuum at laboratory temperature producing a yellowish, viscous fluid displaying only 4-hydroxybenzyl isothiocyanate and pentane/methylene chloride solvent peaks in the GC chromatogram. No further concentration of 4-hydroxybenzyl isothiocyanate was achieved using vacuum distillation because of its instability.
The pH stability of 4-hydroxybenzyl isothiocyanate was analyzed by incubating 25 μL of partially purified extract dissolved in 25 milliliters of eight different buffers with pH values ranging from 3.0 to 6.5 (FIG. 7). 0.1 M buffers were used, and were prepared by mixing 0.2 M sodium citrate and citric acid solutions in pre-calculated ratios ranging from 4 milliliters sodium citrate and 46 milliliters citric acid to 41 milliliters sodium citrate and 9 milliliters citric acid in a total volume of […]. Actual pH values of the buffers of 3.03, 3.52, 4.02, 4.49, 5.00, 5.46, 5.91, and 6.52 were verified using an Orion model 420A pH meter (Orion Research, Boston). At specific times during the incubation a 1-milliliter sample was withdrawn from the buffered reaction solution with a syringe and injected into a Waters Integrity HPLC system (2695 separation module, 996 PDA, and TMD) equipped with a 150×2 mm i.d., 5 μm Aqua C-18 column (Phenomenex). The instrument was operated at a constant flow rate of 200 μL/min with a gradient from 5 to 35% of methanol during each 30-minute run. Half-lives for 4 hydroxybenzyl isothiocyanate were estimated from straight lines obtained by plotting the natural logarithm of the normalized concentration versus time (FIG. 7). This experiment was repeated twice with two different meal extracts acquired by the same procedures from the same seed material. Half-lives from only one of the experiments are reported since the results for both experiments were similar.

[2] = pH stability of 4-OH benzyl ITC in 5 buffer solutions; type: physicochemical
Experimental: The pH stability of 4-OH benzyl ITC was assayed by incubating it in 5 buffer solutions (sodium acetate/acetic acid from pH range 3 to 5 and monosodium phosphate/phosphatic acid for pH above 5) with pHs ranging from 3.0 to 7.0. At specific times during the incubation a sample from the incubated solution was withdrawn with a syringe and injected into an HPLC-PDA (Waters Integrity system, separation module 2695, photodiode array detector 996, column Phenomenex Aqua C-18, 5 μm, 150×2 mm, with a constant flow rate of 200 μl/minute gradient from 5 to 35% of methanol in 30 minutes). The amount of 4-OH benzyl ITC was determined using calibration with benzyl ITC.

weeds = conditions: Harvey 1931; cited from earlier work
cotton = conditions: solutions sprayed directly on vegetative growth (Harvey 1931); cited from earlier work
wheat = conditions: effect no longer observed at 69 days post application (Bissey and Butler 1934); cited from earlier work

SMILES	half-life ([1]; pH 3.0 buffer) [h]	half-life ([1]; pH 3.5 buffer) [h]	half-life ([1]; pH 4.0 buffer) [h]	half-life ([1]; pH 4.5 buffer) [h]	half-life ([1]; pH 5.0 buffer) [h]	half-life ([1]; pH 5.5 buffer) [h]	half-life ([1]; pH 6.0 buffer) [h]	half-life ([1]; pH 6.5 buffer) [h]	Half Life ([2]; pH 3) [h]	Half Life ([2]; pH 4) [h]	Half Life ([2]; pH 5) [h]	Half Life ([2]; pH 6) [h]	Half Life ([2]; pH 7, listed as isothiocyanate precursor) [h]	half-life ([2]; sodium acetate/acetic acid buffer, pH 3.0) [h]	rate necessary for complete plant kill for 4 months (weeds)	rate removing a large percentage of the weeds (weeds) [kilograms/SCN^− ha]	rate at which cotton defoliation was possible (cotton) [kilograms SCN^−/ha]	application rate causing inhibition of wheat germination (wheat) [kilograms SCN^−/ha]
Oc1ccc(CN=C=S)cc1 [4-hydroxybenzyl isothiocyanate]	5.35	5.2	4.5	3.25	1.67	0.817	0.267	0.1	3.6	2.1	1.5	0.1	0.08	3.6	–	–	–	–
N#CS [SCN^−, ionic thiocyanate]	–	–	–	–	–	–	–	–	–	–	–	–	–	–	1,366 kg SCN^−/ha	137	8.6	342
